# Reference: article PMC5531494, “Target specificity, in vivo pharmacokinetics, and efficacy of the putative STAT3 inhibitor LY5 in osteosarcoma, Ewing's sarcoma, and rhabdomyosarcoma” (PLoS ONE, 2017)
# Marks after values point to notes of the source that are not given here.
# Columns and labels:
# STAT4 = target: T1, STAT4 (Homo sapiens, UniProt Q14765); test: Cytokine-induced STAT4 phosphorylation in SJSA cells, Western blot; type: cell-based; conditions: induced by IFN-γ, IFN-α, or IL-4
# T1 construct: endogenous in cells; host or cells: SJSA
# T1 sequence (Q14765 whole entry): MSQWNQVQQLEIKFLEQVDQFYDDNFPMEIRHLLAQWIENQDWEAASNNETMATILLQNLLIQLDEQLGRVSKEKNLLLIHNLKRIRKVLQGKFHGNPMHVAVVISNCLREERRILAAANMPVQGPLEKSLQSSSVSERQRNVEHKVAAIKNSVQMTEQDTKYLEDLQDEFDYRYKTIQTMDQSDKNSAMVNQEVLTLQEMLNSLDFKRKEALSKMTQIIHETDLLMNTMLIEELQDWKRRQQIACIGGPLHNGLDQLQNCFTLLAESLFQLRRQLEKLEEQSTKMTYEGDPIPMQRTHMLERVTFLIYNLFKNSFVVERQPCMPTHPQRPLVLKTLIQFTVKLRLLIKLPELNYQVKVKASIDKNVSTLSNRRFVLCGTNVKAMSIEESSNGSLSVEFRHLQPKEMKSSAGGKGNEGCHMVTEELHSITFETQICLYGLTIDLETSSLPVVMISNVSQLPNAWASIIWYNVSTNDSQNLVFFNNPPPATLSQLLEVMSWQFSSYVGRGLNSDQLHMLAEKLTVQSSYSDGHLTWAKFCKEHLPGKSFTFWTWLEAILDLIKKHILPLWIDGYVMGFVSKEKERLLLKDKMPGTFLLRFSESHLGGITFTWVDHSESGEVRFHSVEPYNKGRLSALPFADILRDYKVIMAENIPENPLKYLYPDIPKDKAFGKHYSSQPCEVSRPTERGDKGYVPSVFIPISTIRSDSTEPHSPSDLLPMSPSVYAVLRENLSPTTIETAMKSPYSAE
# Method: Cell lysis, protein isolation and immunoblotting were performed as described previously. Twenty micrograms of protein were resolved using 4–12% Bis-Tris polyacrylamide gels. Gels were transferred to PVDF membranes and subjected to blocking and incubation with primary and secondary antibodies. The primary antibodies used in this study included: phospho-STAT3 (Tyr705, Cell Signaling, Boston, MA and Abcam, Cambridge, MA), total STAT3 (Cell Signaling and Abcam), phospho-STAT1 (Cell Signaling), total STAT1 (Cell Signaling), phospho-STAT2 (Cell Signaling), phospho-STAT4 (Cell Signaling), phospho-STAT6 (Cell Signaling), and GAPDH (Cell Signaling). Protein bands were detected using Western Lightning ® Plus Enhanced Chemiluminescence substrate (Perkin Elmer, Waltham, MA) and HyBlot CL ® Autoradiography film (Denville Scientific, Holliston, MA). The cytokines used in this study included: interferon gamma (IFN-γ, Cell Signaling), interferon alpha (IFN-α, Cell Signaling), interleukin-4 (IL-4, Cell Signaling), interleukin-6 (IL-6, Cell Signaling), and oncostatin M (OSM, Cell Signaling).
# Fig 1 LY5 inhibits pSTAT3 in sarcoma cell lines. (A) The tumor cell lines RH30, EW8, and RD were treated with increasing concentrations of LY5 for 30 minutes. Cell lysates were collected for Western blotting of p-STAT3, total STAT3, and GAPDH. GAPDH was used as loading control. […]
# OS-1 = test: Subcutaneous xenograft study; type: in vivo, mice; conditions: OS-1, 40 mg/kg twice per day for five days for four consecutive weeks
# Method: C.B-17SC scid^-/- female mice (Taconic Farms, Germantown NY), were used to propagate subcutaneously implanted tumors. All mice were maintained under barrier conditions and experiments were conducted using protocols and conditions approved by the institutional animal care and use committee at University of Texas Health Science Center at San Antonio. Ten mice were used in each control or treatment group. Tumor volumes (cm^3) were determined and responses were determined using three activity measures as previously described.
# The data were analyzed by using GraphPad Prism software (GraphPad Software, Inc., San Diego, CA). Data are presented as mean ± standard deviation. Data were analyzed by one-way analysis of variance (ANOVA), and Tukey’s post-test was used to assess differences between groups. Differences were considered statistically significant at p < 0.05. For in vivo xenograft models, an event was defined as four times the tumor volume at baseline similar to the PPTP criteria. […] The anti-tumor efficacy of LY5 was analyzed by using the statistical pipeline developed in PPTP [27].
# Fig 6 Effects of LY5 are not mediated via STAT3 inhibition. […] After 72 hours of transfection, cells were harvested and analyzed for total (T) STAT3 and GAPDH protein expression by immunoblotting. […] Cell viability was then determined using Alamar Blue staining. […]
# STAT3 = STAT3 (Homo sapiens, UniProt P40763); test: Western blot of pSTAT3 in MG63.3 cells; type: cell-based; set-up: endogenous in cells; host or cells: MG63.3
# Sequence of STAT3 (P40763 whole entry): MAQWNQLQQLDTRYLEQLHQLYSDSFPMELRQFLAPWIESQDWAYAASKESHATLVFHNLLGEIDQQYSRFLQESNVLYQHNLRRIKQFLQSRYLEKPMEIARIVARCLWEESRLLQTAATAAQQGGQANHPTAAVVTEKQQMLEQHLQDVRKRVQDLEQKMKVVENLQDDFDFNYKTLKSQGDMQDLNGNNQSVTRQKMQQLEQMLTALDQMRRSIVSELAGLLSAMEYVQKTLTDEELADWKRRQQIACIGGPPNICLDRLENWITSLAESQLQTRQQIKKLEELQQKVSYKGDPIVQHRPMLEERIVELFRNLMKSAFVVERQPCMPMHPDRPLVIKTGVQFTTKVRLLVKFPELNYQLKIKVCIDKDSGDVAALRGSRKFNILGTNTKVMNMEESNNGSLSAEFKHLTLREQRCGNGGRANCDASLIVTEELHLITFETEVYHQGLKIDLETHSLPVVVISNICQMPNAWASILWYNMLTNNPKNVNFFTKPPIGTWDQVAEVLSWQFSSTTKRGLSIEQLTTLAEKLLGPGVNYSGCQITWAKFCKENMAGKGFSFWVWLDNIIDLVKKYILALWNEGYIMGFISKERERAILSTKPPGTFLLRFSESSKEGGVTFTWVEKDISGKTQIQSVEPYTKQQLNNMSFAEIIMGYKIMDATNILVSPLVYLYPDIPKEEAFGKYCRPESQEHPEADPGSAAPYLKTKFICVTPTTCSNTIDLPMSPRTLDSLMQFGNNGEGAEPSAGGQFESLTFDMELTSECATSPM
# Method: Murine K7M2 and human MG63.3 OS cells were treated with increasing concentrations of LY5 for 2 hrs or 7 hrs. Western blotting was performed for pSTAT3 and STAT3 as indicated above to confirm inhibition of STAT3 phosphorylation in the cell lines prior to initiation of the PuMA assay. In addition, a sulforhodamine B colorimetric assay was performed to assess the cytotoxicity of LY5 in K7M2 and MG63.3 cells as previously described.
# MG63.3 and K7M2 cell lines were exposed to increasing concentrations of LY5 to determine the IC50 (A). Western blot analysis was performed to determine the dose and duration of LY5 exposure required to inhibit STAT3 phosphorylation (B-C). Serial imaging of fluorescently labeled MG63.3 and K7M2 cells was performed in ex vivo LY5 treated lung sections (D). Metastatic burden was quantified by evaluation of the percent tumor burden (mean normalized fluorescent area). Data are reported as the mean ± standard deviation. In MG 63.3 experiment, p < 0.0001 Kruskal-Wallis test, p < 0.05 10 μM vs control at days 7, 14, and 21, 10 μM vs 1 μM at days 7, 14, and 21, 50 μM vs control at days 7, 14, and 21, and 50 μM vs 10 μM at days 7, 14, and 21 post-test Dunn. In K7M2 experiment, p < 0.0001 Kruskal-Wallis test, p < 0.05 10 μM vs control at days 14 and 21, 10 μM vs 0.1 μM at days 14 and 21, and 10 μM vs 1 μM at days 14 and 21, post-test Dunn.
# [1] = target: T2, polo-like kinase 3 (PLK3) (Homo sapiens, UniProt Q9H4B4); test: KINOMESCAN binding, PLK3; conditions: 5 μM LY5
# T2 construct: purchased KINOMESCAN (www.kinomescan.com)
# T2 sequence (Q9H4B4 whole entry): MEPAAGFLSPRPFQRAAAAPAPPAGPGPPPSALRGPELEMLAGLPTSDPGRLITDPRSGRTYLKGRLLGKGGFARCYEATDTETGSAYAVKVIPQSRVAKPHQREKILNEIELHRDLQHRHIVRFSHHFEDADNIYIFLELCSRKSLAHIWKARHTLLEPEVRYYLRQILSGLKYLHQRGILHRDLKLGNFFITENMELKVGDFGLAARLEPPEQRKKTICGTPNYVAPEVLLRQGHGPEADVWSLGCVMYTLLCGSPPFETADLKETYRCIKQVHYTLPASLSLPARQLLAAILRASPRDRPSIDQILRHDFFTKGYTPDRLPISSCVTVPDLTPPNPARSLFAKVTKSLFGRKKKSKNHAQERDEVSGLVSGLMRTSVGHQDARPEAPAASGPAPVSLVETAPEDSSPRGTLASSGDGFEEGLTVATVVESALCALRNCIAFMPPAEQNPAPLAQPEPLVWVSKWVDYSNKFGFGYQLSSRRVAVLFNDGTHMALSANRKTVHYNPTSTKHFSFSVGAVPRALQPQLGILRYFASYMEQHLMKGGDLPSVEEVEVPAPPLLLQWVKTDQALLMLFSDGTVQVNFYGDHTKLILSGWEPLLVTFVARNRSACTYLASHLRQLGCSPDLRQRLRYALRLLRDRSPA
# Method: To determine the specificity of STAT blockade, we asked whether LY5 affected the phosphorylation of other family members including STAT1, STAT2, STAT4, and STAT6 [30–32]. […] To further define any potential off-target effects, we profiled the direct (steric) or indirect (allosteric) binding of LY5 to the binding sites of 96 human protein or lipid kinases (KINOMESCAN, www.kinomescan.com).
# Supplementary file pone.0181885.s001.pdf: S1 Fig Kinomescan results for LY5. […] At 5 μM LY5 (B), only interaction with PLK3 was identified, mapped S-score (35) = 0.01. (PDF) Click here for additional data file.
structure (smiles),measurement,setting,value
"NS(=O)(=O)c1cccc2c1C(=O)C=C(Nc1cccnc1)C2=O [LY5, 5,8-dioxo-6-(pyridin-3-ylamino)-5,8-dihydronaphthalene-1-sulfonamide]",phosphorylation of STAT4,STAT4,did not inhibit
same,Group Response,OS-1,"PD2^f (Progressive disease 2, >50% TGI, >25% tumor progression)"
same,Survival (%),OS-1,90%
same,exposure time for effective inhibition of STAT3 phosphorylation,"STAT3; MG 63.3, 1 μM LY5",0.5 h
same,concentration that decreased STAT3 phosphorylation,"STAT3; MG63.3, 2 hrs treatment",1 µM
same,binding to PLK3,[1],binding
